Results: paper PMC12396409, “Screening and hit evaluation of a microbial metabolite library against the pathogenic Plasmodium falciparum and Toxoplasma gondii parasites” (International Journal for Parasitology: Drugs and Drug …, 2025)

Tests used:
[1] = tested on: P. falciparum 3D7 parasites; experiment: P. falciparum growth inhibition assay, 1-cycle (72 h treatment), SYBR DNA staining (library screen at 2 μg/mL and dose-response); assay type: cell-based, Plasmodium falciparum; settings: % growth; for Pf_72h_%Growth_Rep1: replicate 1; for Pf_72h_%Growth_Rep2: replicate 2
[2] = tested on: P. falciparum 3D7 parasites; experiment: P. falciparum growth inhibition assay, 2-cycle (120 h treatment), delayed-death screen and dose-response; assay type: cell-based, Plasmodium falciparum; settings: % growth; for Pf_120h_%Growth_Rep1: replicate 1; for Pf_120h_%Growth_Rep2: replicate 2
[3] = tested on: T. gondii RH strain (RH-Tub-eYFP) tachyzoites; experiment: microbe, parasite or virus in culture; assay type: cell-based, Toxoplasma gondii; settings: 72 h, % growth; for Tg_72h_%Growth_Rep1: replicate 1; for Tg_72h_%Growth_Rep2: replicate 2
[4] = P. falciparum, 72 h, parasite screen 2 μg/mL
[5] = P. falciparum, 120 h, parasite screen 2 μg/mL
[6] = T. gondii, parasite screen 2 μg/mL
[7] = P. falciparum 3D7, 72 h, library screen at 2 μg/mL
[8] = P. falciparum 3D7, 120 h, library screen at 2 μg/mL
[9] = T. gondii RH, library screen at 2 μg/mL
[10] = library screen at 2 μg/mL, 72 h
[11] = library screen at 2 μg/mL, 120 h

Molecule: C=C/C(C)=C/[C@H](C)C(=O)C[C@H](O)CC1CC(=O)NC(=O)C1 [Streptimidone]
- Pf_72h_%Growth_Rep1 [1, 4]: 21.69%
- Pf_72h_%Growth_Rep2 [1, 4]: 38.20%
- Pf_120h_%Growth_Rep1 [2, 5]: 72.22%
- Pf_120h_%Growth_Rep2 [2, 5]: 22.01%
- Tg_72h_%Growth_Rep1 [3, 6]: 3.03%
- Tg_72h_%Growth_Rep2 [3, 6]: 2.79%

Molecule: CCCCC(C)C=C(C)C=C(C)C(=O)NC1=CC(O)(C=CC=CC=CC(=O)NC2=C(O)CCC2=O)C2OC2C1=O (stereo not drawn) [BIA-M1905]
- Pf_72h_%Growth_Rep1 [1, 7]: 81.84%
- Pf_72h_%Growth_Rep2 [1, 7]: 57.54%
- Pf_120h_%Growth_Rep1 [2, 8]: 83.56%
- Pf_120h_%Growth_Rep2 [2, 8]: 90.34%
- Tg_72h_%Growth_Rep1 [3, 9]: 110.20%
- Tg_72h_%Growth_Rep2 [3, 9]: 85.96%

Molecule: C=C1CC[C@H](O)C(C)(C)[C@@H]1CC/C(C)=C/CC/C(C)=C/Cc1c(O)cc(C)oc1=O [Sartorypyrone D]
- Pf_72h_%Growth_Rep1 [1, 4]: 81.94%
- Pf_72h_%Growth_Rep2 [1, 4]: 66.06%
- Pf_120h_%Growth_Rep1 [2, 5]: 72.77%
- Pf_120h_%Growth_Rep2 [2, 5]: 7.76%
- Tg_72h_%Growth_Rep1 [3, 6]: 121.13%
- Tg_72h_%Growth_Rep2 [3, 6]: 88.47%

Molecule: CC(/C=C/[C@H](O)[C@@H](C)/C=C/C(=O)O)=C\C[C@H]1O[C@]2(CC[C@@H]1C)CC[C@@](CCC(C)C)(OC(=O)CCC(=O)O)[C@H](/C=C/C(C)=C/C(=O)O)O2 [Reveromycin C]
- Pf_72h_%Growth_Rep1 [1, 4]: 86.43%
- Pf_72h_%Growth_Rep2 [1, 4]: 70.33%
- Pf_120h_%Growth_Rep1 [2, 5]: 71.01%
- Pf_120h_%Growth_Rep2 [2, 5]: 60.10%
- Tg_72h_%Growth_Rep1 [3, 6]: 140.65%
- Tg_72h_%Growth_Rep2 [3, 6]: 73.99%

Molecule: CC[C@@H](C(=O)[C@@H](C)[C@@H](O)[C@H](C)[C@@H]1O[C@@H]([C@@H](CC)C(=O)O)CC[C@@H]1C)[C@H]1O[C@]2(C=C[C@@H](O)[C@]3(CC[C@@](C)([C@H]4CC[C@](O)(CC)[C@H](C)O4)O3)O2)[C@H](C)C[C@@H]1C [Salinomycin sodium]
- Pf_72h_%Growth_Rep1 [1, 4]: 3.74%
- Pf_72h_%Growth_Rep2 [1, 4]: -3.65%
- Pf_120h_%Growth_Rep1 [2, 5]: 8.77%
- Pf_120h_%Growth_Rep2 [2, 5]: -2.16%
- Tg_72h_%Growth_Rep1 [3, 6]: 1.25%
- Tg_72h_%Growth_Rep2 [3, 6]: 0.43%

Molecule: CC(=O)O[C@@H]1CC[C@@]2(C)[C@@H](CC[C@@H](C)[C@]23Cc2c(O)cc(CO)c(C=O)c2O3)C1(C)C [Stachybotrysin B]
- Pf_72h_%Growth_Rep1 [1, 4]: 81.92%
- Pf_72h_%Growth_Rep2 [1, 4]: 82.33%
- Pf_120h_%Growth_Rep1 [2, 5]: 161.09%
- Pf_120h_%Growth_Rep2 [2, 5]: 88.10%
- Tg_72h_%Growth_Rep1 [3, 6]: 84.36%
- Tg_72h_%Growth_Rep2 [3, 6]: 101.19%

Molecule: COCCC[C@H]1O[C@@](O)([C@H](C)C2CC(OC)C(O)/C=C(C)/C=C(C)/C=C(/C)C(O[C@H]3O[C@H](C)[C@@H](OC)[C@H](O)[C@H]3O)C(C)/C=C(CO)/C=C(OC)\C=C(/C)C(=O)O2)[C@H](OC)[C@@H](O)[C@]1(C)O[C@H]1C[C@H](O)[C@H](O[C@H]2C[C@@](C)(O)[C@H](O)[C@@H](C)O2)[C@@H](C)O1 (stereo partly drawn) [Amycolatopsin A]
- Pf_72h_%Growth_Rep1 [1, 10]: 76.67%
- Pf_72h_%Growth_Rep2 [1, 10]: 110.14%
- Pf_120h_%Growth_Rep1 [2, 11]: 67.28%
- Pf_120h_%Growth_Rep2 [2, 11]: 94.98%
- Tg_72h_%Growth_Rep1 ([3]; library screen at 2 μg/mL): 96.54%
- Tg_72h_%Growth_Rep2 ([3]; library screen at 2 μg/mL): 72.55%

Molecule: CCC(C)C1OC2(CCC1C)CC1CC(CC=C(C)C(OC3CC(OC)C(OC4CC(OC)C(O)C(C)O4)C(C)O3)C(C)C=CC=C3COC4C(O)C(C)C=C(C(=O)O1)C34O)O2 (stereo not drawn) [BIA-I1581]
- Pf_72h_%Growth_Rep1 [1, 7]: 5.59%
- Pf_72h_%Growth_Rep2 [1, 7]: 2.07%
- Pf_120h_%Growth_Rep1 [2, 8]: 16.87%
- Pf_120h_%Growth_Rep2 [2, 8]: 11.19%
- Tg_72h_%Growth_Rep1 [3, 9]: 33.19%
- Tg_72h_%Growth_Rep2 [3, 9]: 43.03%

Molecule: Amphomycin
- Pf_72h_%Growth_Rep1 [1, 10]: 83.34%
- Pf_72h_%Growth_Rep2 [1, 10]: 87.67%
- Pf_120h_%Growth_Rep1 [2, 11]: 117.00%
- Pf_120h_%Growth_Rep2 [2, 11]: 80.15%
- Tg_72h_%Growth_Rep1 ([3]; library screen at 2 μg/mL): 94.79%
- Tg_72h_%Growth_Rep2 ([3]; library screen at 2 μg/mL): 89.38%

Molecule: C/C=C/C=C/[C@H]1Cc2cc(O)cc(O)c2O1 [Asperfuran]
- Pf_72h_%Growth_Rep1 [1, 10]: 81.82%
- Pf_72h_%Growth_Rep2 [1, 10]: 86.77%
- Pf_120h_%Growth_Rep1 [2, 11]: 70.89%
- Pf_120h_%Growth_Rep2 [2, 11]: 94.19%
- Tg_72h_%Growth_Rep1 ([3]; library screen at 2 μg/mL): 65.57%
- Tg_72h_%Growth_Rep2 ([3]; library screen at 2 μg/mL): 59.68%
